Experiments:
horny layer = experiment: Skin conductance (water content of horny layer) after two-week coating on cheeks; format: in vivo, women; set-up: key: conductance meter reading; ≤5 = severe roughness, ≥20 = no roughness; conditions: Invention Product 1: vaseline and compound 3:1 by weight; two weeks; 20° C., 40% humidity; 5 and smaller = severe roughness, 20 or greater = no substantial roughness
Description: (§1) Compounds Ia1 -Ia18 prepared respectively in Referential Examples 1, 2 and 3 and following the procedures of these referential examples, compounds Ib1 -Ib5 prepared respectively in Referential Example 4 and following the procedure of the referential example, compounds Id1 -Id5 prepared respectively in Referential Example 5 and following the procedure of the referential example, compounds Ie1 -Ie4 prepared respectively in Referential Examples 6-9, and conventional compounds Ic1 -Ic13, Ie5 -Ie14 and II1 -II12 were used separately. Mixtures (Invention Products 1), each of which had been formulated by mixing vaseline and the compound (I or II) at a weight ratio of 3:1, and vaseline (Comparative Product 1) were evaluated in skin conductance and skin roughness by the following methods.
(§2) Chosen as volunteers in winter were 10 women of 20-50 years of old who had skin roughness on their both cheeks. Different external skin care preparations were coated separately on the left and right cheeks of each volunteer for two weeks. On the following day of the completion of the two-week coating test, tests were conducted with respect to the following properties.
After washing the face with warm water of 37° C., each volunteer was allowed to rest for 20 minutes in a room which was air-conditioned at 20° C. and 40% humidity. The water content of their horny layer was measured by a skin conductance meter (manufactured by IBS Company). A smaller conductance value indicates greater skin roughness. Conductance values of 5 and smaller indicate severe skin roughness. On the contrary, no substantial skin roughness is observed where this value is 20 or greater.

skin roughness = experiment: Score of skin roughness, visual ranking after two-week coating on cheeks; format: in vivo, women; conditions: average, 4 = severe
Description: as §1, §2
Skin roughness was observed visually and ranked in accordance with the following standard. Each score was indicated by an average value.
Score Ranking of skin roughness
0 No skin roughness was observed.
1 Slight skin roughness was observed.
2 Skin roughness was observed.
3 Rather severe skin roughness was observed.
4 Severe skin roughness was observed.
Using separately the compounds used in Example 1, external skin care preparations (emulsified cosmetic preparations) of their corresponding compositions shown below in Table 2 were formulated. Their effects for the improvement of skin roughness were evaluated in the same manner as in Example 1.

[1] = Invention product 2: emulsified cosmetic, compound 1.0 wt. %, glyceryl ether 2.0 wt. %, 0 = none
[2] = Invention product 3: emulsified cosmetic, compound 1.0 wt. %, arginine monocetylphosphate 2.0 wt. %, 0 = none
[3] = Invention product 4: emulsified cosmetic, compound 1.0 wt. %, polyoxyethylene (20) sorbitan stearate 1.0 and sorbitan monostearate 1.0 wt. %, 0 = none

| Structure (SMILES) | Skin conductance (horny layer) | Score of skin roughness (skin roughness; [1]) | Score of skin roughness (skin roughness; [2]) | Score of skin roughness (skin roughness; [3]) | Score of skin roughness (skin roughness; Invention Product 1: vaseline and compound 3:1 by weight, two weeks, 0 = no roughness) |
| --- | --- | --- | --- | --- | --- |
| CCCCCCCCCCCCCCCCOCC(O)CN(C(=O)CCCCCCCCCCCCCCC)C(Cc1ccccc1)C(=O)O (centres unmarked) [Compound Ic6] | 12 | 0.9 | 1.2 | 1.5 |  |
| CCCCCCCCCCCCCCCCOCC(O)CN(CCO[C@@H]1O[C@H](CO)[C@@H](O[C@@H]2O[C@H](CO)[C@H](O)[C@H](O)[C@H]2O)[C@H](O)[C@H]1O)C(=O)CCCCCCCCCCCCCCC (stereo partly drawn) [Compound Ie2, N-(3-hexadecyloxy-2-hydroxypropyl)-N-[2-O-(4-β-D-galactopyranosyl-β-D-glucopyranosyl)ethyl]hexadecanamide] | 29 | 0.4 | 0.5 | 0.8 |  |
| CCCCCCCCCCCCCCCCOCC(O)CN(CCO[C@]1(C(=O)O)C[C@H](O)[C@@H](NC(C)=O)[C@H]([C@H](O)[C@H](O)CO)O1)C(=O)CCCCCCCCCCCCCCC (stereo partly drawn) [Compound Ie4, N-(3-hexadecyloxy-2-hydroxypropyl)-N-[2-O-(5-acetamido-3,5-dideoxy-α-D-glycero-β-D-galacto-2-nonuropyranosyl)ethyl]hexadecanamide] | 33 | 0.2 | 0.2 | 0.4 | 0.5 |
| CCCCCCCCCCCCCCCCCC(=O)N(CC(=O)O)CC(O)CCCCCCCCCCCCCCCC (centres unmarked) [Compound Ic3] | 11 | 1.0 | 1.3 | 1.6 |  |
| CCCCCCCCCCCCCCCCCCOCC(O)CN(CCO)CC(O)COCCCCCCCCCCCCCCCCCC (centres unmarked) [Compound II4] | 21 | 0.1 | 0.3 | 0.7 |  |
| CCCCCCCCCCCCCCCCCCOCC(O)CN(C(=O)CCCCCCCCCCCCCCCCC)C(C)CO (centres unmarked) [Compound Ia16] | 15 | 0.4 | 0.6 | 0.9 |  |
| CCCCCCCCCCCCCCCCOCC(O)CN(CCOP(=O)(O)OCCNC)C(=O)CCCCCCCCCCCCCCC (centres unmarked) [Compound Ie6] | 16 | 0.8 | 0.9 | 1.4 |  |
| CCCCCCCCCCOCC(O)CN(CCO)CC(O)COCCCCCCCCCC (centres unmarked) [Compound II2] | 8 | 0.8 | 1.0 | 1.2 |  |
| CCCCCCCCCCCCCCCCCCOCC(O)CN(CCOCCO)C(=O)CCCCCCCCC (centres unmarked) [Compound Ib3] | 14 | 0.6 | 0.9 | 1.1 |  |
| CCCCCCCCCCCCCCCCOCC(O)CN(CCOP(=O)([O-])OCC[N+](C)(C)C)C(=O)CCCCCCCCCCCCCCC (centres unmarked) [Compound Ie7] |  | 0.5 | 0.7 | 1.0 |  |
| CCCCCCCCCCCCCCOCC(O)CN(C(=O)CCCCCCCCC)C(CO)(CO)CO (centres unmarked) [Compound Ia17] | 20 | 0.2 | 0.4 | 0.7 |  |
| CCCCCCCCCCCCCCCCOCC(O)CN(CCOP(=O)(O)OCCNCc1ccccc1)C(=O)CCCCCCCCCCCCCCC (centres unmarked) [Compound Ie8] | 15 | 0.6 | 1.1 | 1.3 |  |
| CCCCCCCCCCCCCCCCOCC(O)CN(CCO)CC(O)COCCCCCCCCCCCCCCCC (centres unmarked) [Compound II1] | 18 | 0.1 | 0.3 | 0.8 |  |
| CCCCCCCCCCCCCCCCCCOCC(O)CN(CC(O)COCCCCCCCCCCCCCCCCCC)C(C)=O (centres unmarked) [Compound II12] | 20 | 0.2 | 0.4 | 0.8 |  |

Reference: US4985547A, “External skin care preparation” (Kao Corporation, priority 1987, dated 1991)
